Experimental data from patent publication US20080132564A1, “MICELLAR DRUG DELIVERY VEHICLES AND PRECURSORS THERETO AND USES THEREOF” (ANGIOTECH INTERNATIONAL AG, priority 2001, published 2008).

Assays:
[1] = Solubility of paclitaxel in organic solvents
[2] = Recovery of paclitaxel added to polymer mixtures after heating (reverse phase HPLC, UV detection); assay type: physicochemical
Description: The desirability of removing unreacted starting materials and/or acidic reaction by-products can be seen by reference to the data in Table 1. […] According to the data, when paclitaxel is combined with a diblock copolymer having up to 2% residual monomer and up to 0.2 μmol/mg acid content (expressed as the number of protons titrated in a solution prepared by dissolving 1 mg of diblock copolymer in water), after heating, only 95% of the paclitaxel initially added to the mixture could be recovered, as quantified using a reverse phase HPLC assay with UV detection and a taxane optimized C18 column.

## CC(=O)O[C@H]1C(=O)[C@@]2(C)[C@H]([C@H](OC(=O)c3ccccc3)[C@]3(O)C[C@H](OC(=O)[C@H](O)[C@@H](NC(=O)c4ccccc4)c4ccccc4)C(C)=C1C3(C)C)[C@]1(OC(C)=O)CO[C@@H]1C[C@@H]2O [paclitaxel]
[1]; in 1 mL of NMP
  amount of paclitaxel that may be dissolved in NMP: 535 mg
[1]; in ethanol (volume not given)
  amount of paclitaxel that may be dissolved in ethanol: 26 mg
[2]; combined with diblock copolymer having up to 2% residual monomer and up to 0.2 μmol/mg acid content
  paclitaxel initially added that could be recovered after heating: 95%
[2]; combined with methoxypolyethylene glycol having no measured acidic components and no DL-lactide monomer
  paclitaxel recovered after heating: 99%
[2]; diblock copolymer with greatly reduced quantities of residual monomer and acidic components
  paclitaxel that could be recovered after heating: 98%
